Source: patent US10053477B2, “Spirocyclic aryl phosphorus oxide and aryl phosphorus sulfide” (QILU PHARMACEUTICAL CO., LTD., priority 2014, dated 2018)

How the values were obtained:
[1] = target: T1, EGFR T790M/L858R (Homo sapiens, UniProt P00533, L858R/T790M); assay: EGFR T790M/L858R enzymatic inhibition (HTRF); type: biochemical; settings: 20 μM ATP
T1 construct: purchased Life technology (Madison, Wis.)
Method: Enzyme: ALK wild-type, ALK C1156Y and ALK L1196M supplied by Carna Biosciences (Japan), EGFR T790M/L858R supplied by Life technology (Madison, Wis.).
HTRF kit: supplied by Cis-Bio International, with Eu-marked TK1 antibody, XL665- and biotin-labelled TK1 polypeptide substrates.
The compound to be tested is diluted at a gradient by 3 times thereby giving 11 gradients starting from […] to 0.017 nM for the final concentration.
10 μl EGFR T790M/L858R enzyme reaction mixture system: 0.08 nM EGFR T790M/L858R, 1 μM biotin-TK1 peptide, 20 μM ATP. Reaction buffer: 50 mM Hepes (pH7.5), 10 mM MgCl2, 0.01 mM NaV3VO4. The reaction plate was white Proxiplate 384-Plus plate (PerkinElmer). Reaction was reacted at room temperature for 60 minutes.
Detecting reaction: 10 μl testing reagent was added to the reaction plate, the final concentration of Antibody was 2 nM, XL665 was 62.5 nM. Incubation was carried out for 60 minutes at room temperature. Detection was by Envision.

[2] = tested on: LU-01-0015 xenotransplantation (PDX) from lung cancer patients; assay: In vivo efficacy, LU-01-0015 xenotransplantation (PDX) from lung cancer patients; design: species or system BALB/c nude mice; settings: 25 mg/kg orally everyday
From the text: BALB/c nude mice, female, 6 to 8 weeks, about 18 to 22 g bodyweight, was kept in a special environment without pathogens, and a single ventilated cage (5 mice per cage). Beddings and water in all the cages were disinfected before use. […] 80 mice were supplied by Shanghai BK Laboratory Animal Co., LTD for study. Each mouse was subcutaneously implanted tumor tissue (20-30 mm^3) at right flank for growth of tumor. When the average tumor volume reached about 250-300 mm^3, the assay started. Test compounds were delivered orally everyday, 25 mg/kg. Tumor size was measured with two-dimensional caliper every 3 days, size was recorded by mm^3, and calculated by the following formula: V=V=0.5a×b2, where a and b are respectively the long diameter and short diameter length of the tumor. The antitumor efficacy was determined by dividing the average increased tumor volume in compound-treated animal by the average increased tumor volume in untreated animal.

[3] = tested on: LU-01-0319 Crizotinib resistance model; assay: In vivo anti-tumor efficacy, Crizotinib resistant LU-01-0319 xenotransplantation (PDX) tumor; design: species or system BALB/c nude mice
From the text: LU-01-0319 xenotransplantation tumor models initially obtained from clinical sample through surgical resection were implanted into nude mice, which was defined as a batch of P0 (LU-01-0319-P0). The next batch was defined as P1 (LU-01-0319-P1) which was implanted tumors from P0. FP3 was regained from P2, the next batch was defined as FP4 which was implanted tumors from FP3. […] The continuous increasing tumors were defined as LU-01-0319 antitumor models. BALB/c nude mice, female, 6 to 8 weeks, about 18 to 22 g bodyweight, 75 mice were used for study, supplied by Shanghai BK Laboratory Animal Co., LTD. Tumour biopsies (about 30 mm^3) of LU-01-0319R FP6 were implanted subcutaneously on right side of each mouse for growth of tumor. […] Dose of Crizotinib was appropriately varied depending on the tumor size. When average tumor volume reached about ˜500 mm^3, the assay began. Once a day the compounds to be tested were orally administered. Tumor size were measured twice a week with a caliper at two dimensions, and calculated with the following formula: V=0.5a×b2, where a and b are respectively long diameter and short diameter of the tumor. The antitumor efficacy was determined by dividing the average increased tumor volume in compound-treated animal by the average increased tumor volume in untreated animal.

T1 sequence (P00533 25-1210 T790M/L858R): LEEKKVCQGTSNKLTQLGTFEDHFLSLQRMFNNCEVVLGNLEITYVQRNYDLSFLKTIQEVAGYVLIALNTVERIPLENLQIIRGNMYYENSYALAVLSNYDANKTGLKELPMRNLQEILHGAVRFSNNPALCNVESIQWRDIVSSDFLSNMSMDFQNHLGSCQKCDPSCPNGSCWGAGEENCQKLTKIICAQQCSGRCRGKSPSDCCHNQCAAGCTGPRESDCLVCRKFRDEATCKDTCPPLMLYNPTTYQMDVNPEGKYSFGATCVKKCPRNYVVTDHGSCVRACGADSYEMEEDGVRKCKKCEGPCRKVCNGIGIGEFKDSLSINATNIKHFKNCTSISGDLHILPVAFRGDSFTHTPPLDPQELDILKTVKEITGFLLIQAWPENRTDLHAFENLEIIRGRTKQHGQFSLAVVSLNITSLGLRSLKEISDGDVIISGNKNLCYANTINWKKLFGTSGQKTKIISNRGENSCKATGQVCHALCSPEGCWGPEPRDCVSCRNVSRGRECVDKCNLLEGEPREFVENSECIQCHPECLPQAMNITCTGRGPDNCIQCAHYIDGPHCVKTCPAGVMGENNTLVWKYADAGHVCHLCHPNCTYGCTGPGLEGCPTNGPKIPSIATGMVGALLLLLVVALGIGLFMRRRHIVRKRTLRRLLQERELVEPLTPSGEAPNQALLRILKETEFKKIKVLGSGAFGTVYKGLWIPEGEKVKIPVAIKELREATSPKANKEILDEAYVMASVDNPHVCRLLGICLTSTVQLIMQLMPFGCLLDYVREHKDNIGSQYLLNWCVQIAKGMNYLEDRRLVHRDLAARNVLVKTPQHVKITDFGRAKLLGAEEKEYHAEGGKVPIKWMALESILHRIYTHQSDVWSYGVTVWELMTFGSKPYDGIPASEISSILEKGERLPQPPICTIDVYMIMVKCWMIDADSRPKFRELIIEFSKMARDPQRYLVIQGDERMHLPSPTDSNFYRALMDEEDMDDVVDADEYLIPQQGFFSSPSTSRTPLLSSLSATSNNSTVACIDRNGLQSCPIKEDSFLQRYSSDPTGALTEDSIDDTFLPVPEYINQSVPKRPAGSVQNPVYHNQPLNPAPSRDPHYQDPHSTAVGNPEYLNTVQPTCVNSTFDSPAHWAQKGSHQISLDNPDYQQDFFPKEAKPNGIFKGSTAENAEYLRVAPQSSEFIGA

For `CN1CCC2(CC1)CCN(c1ccc(Nc3ncc(Cl)c(Nc4ccccc4P(C)(C)=O)n3)c(OC(F)F)c1)CC2` [Compound 11, (2-((5-Chloro-2-((2-(difluoromethoxy)-4-(9-methyl-3,9-diazaspiro[5.5]undecan-3-yl)phenyl)amino)pyrimidin-4-yl)amino)phenyl)dimethyl phosphine oxide], which IC50 [1] is on record?
Its IC50 is 1 to 100 nM.

What does the source list for `COc1cc(N2CCC3(CCN(C)CC3)CC2)ccc1Nc1ncc(Cl)c(Nc2ccccc2P(C)(C)=S)n1` [Compound 12, 5-Chloro-N^4-(2-(dimethylphosphorothioyl)phenyl)-N^2-(2-methoxy-4-(9-methyl-3,9-diazaspiro[5.5]undecan-3-yl)phenyl)pyrimidine-2,4-diamine]?
IC50 [1]: 1 to 100 nM; Tumor volume ([2]; 3 days): 199 mm^3; Tumor volume ([2]; 6 days): 97 mm^3; Tumor volume ([2]; 9 days): 90 mm^3; Tumor volume ([2]; 12 days): 58 mm^3; Tumor volume ([2]; 16 days): 49 mm^3; Tumor volume ([2]; 19 days): 42 mm^3; Tumor volume ([2]; 23 days): 32 mm^3

How did the IC50 [1] turn out when `COc1cc(N2CCC3(CCNC3)CC2)ccc1Nc1ncc(Cl)c(Nc2ccccc2P(C)(C)=O)n1` [Compound 3, (2-((5-Chloro-2-((2-methoxy-4-(2,8-diazaspiro[4.5]decan-8-yl)phenyl)amino)pyrimidin-4-yl)amino)phenyl)dimethylphosphine oxide] was run?
Its IC50 is 1 to 100 nM.

Which IC50 [1] does the source give for `COc1cc(N2CCC3(CCN(C)CC3)CC2)ccc1Nc1ncc(Cl)c(Nc2c(F)cccc2P(C)(C)=O)n1` [Compound 25, (2-((5-Chloro-2-((2-methoxy-4-(9-methyl-3,9-diazaspiro[5.5]undecan-3-yl)phenyl)amino)pyrimidin-4-yl)amino)-3-fluorophenyl)dimethyl phosphine oxide] here?
The IC50 was 101 to 1000 nM.

How did the IC50 [1] turn out when `COc1cc(N2CCC3(CCN(C)CC3)CC2)c(C)cc1Nc1ncc(Cl)c(Nc2ccccc2P(C)(C)=O)n1` [Compound 23, (2-((5-Chloro-2-((2-methoxy-5-methyl-4-(9-methyl-3,9-diazaspiro[5.5]undecan-3-yl)phenyl)amino)pyrimidin-4-yl)amino)phenyl)dimethyl phosphine oxide] was run?
Its IC50 is 1 to 100 nM.

How did the IC50 [1] turn out when `COc1cc(N2CCC3(CC2)CNC3)ccc1Nc1ncc(Cl)c(Nc2ccccc2P(C)(C)=O)n1` [Compound 4, (2-((5-Chloro-2-((2-methoxy-4-(2,7-diazaspiro[3.5]nonan-7-yl)phenyl)amino)pyrimidin-4-yl)amino)phenyl)dimethyl phosphine oxide] was run?
Its IC50 is 1 to 100 nM.

Which IC50 [1] does the source give for `COc1cc(N2CCC3(CCN(C)CC3)CC2)ccc1Nc1ncc(Cl)c(Nc2ccc(F)cc2P(C)(C)=O)n1` [Compound 26, (2-((5-Chloro-2-((2-methoxy-4-(9-methyl-3,9-diazaspiro[5.5]undecan-3-yl)phenyl)amino)pyrimidin-4-yl)amino)-5-fluorophenyl)dimethyl phosphine oxide] here?
Its IC50 is 1 to 100 nM.

And the Tumor volume ([2]; 3 days)?
Its Tumor volume is 235 mm^3.

What about the Tumor volume ([2]; 6 days) of the same compound?
Its Tumor volume is 127 mm^3.

And the Tumor volume ([2]; 9 days)?
Its Tumor volume is 84 mm^3.

What about the Tumor volume ([2]; 12 days) of the same compound?
The Tumor volume was 55 mm^3.

What about the Tumor volume ([2]; 16 days) of the same compound?
Its Tumor volume is 46 mm^3.

What about the Tumor volume ([2]; 19 days) of the same compound?
Its Tumor volume is 59 mm^3.

And the Tumor volume ([2]; 23 days)?
Its Tumor volume is 53 mm^3.

Which IC50 [1] does the source give for `COc1cc(C2CCC3(CC2)CCN(C)CC3)ccc1Nc1ncc(Cl)c(Nc2ccccc2P(C)(C)=O)n1` [Compound 27, (2-((5-Chloro-2-((2-methoxy-4-(3-methyl-3-azaspiro[5.5]undecan-9-yl)phenyl)amino)pyrimidin-4-yl)amino)phenyl)dimethyl phosphine oxide] here?
The IC50 was 1 to 100 nM.

And the Tumor volume ([2]; 3 days)?
The Tumor volume was 158 mm^3.

What about the Tumor volume ([2]; 6 days) of the same compound?
Its Tumor volume is 82 mm^3.

And the Tumor volume ([2]; 9 days)?
Its Tumor volume is 68 mm^3.

And the Tumor volume ([2]; 12 days)?
The Tumor volume was 49 mm^3.

What about the Tumor volume ([2]; 16 days) of the same compound?
The Tumor volume was 34 mm^3.

And the Tumor volume ([2]; 19 days)?
Its Tumor volume is 41 mm^3.

What about the Tumor volume ([2]; 23 days) of the same compound?
Its Tumor volume is 35 mm^3.

And the Tumor volume ([3]; 0 day, dosage 3 mg/Kg orally once a day)?
Its Tumor volume is 503 mm^3.

What about the Tumor volume ([3]; 0 day, dosage 10 mg/Kg orally once a day) of the same compound?
The Tumor volume was 502 mm^3.

And the Tumor volume ([3]; 3 days, dosage 3 mg/Kg orally once a day)?
The Tumor volume was 689 mm^3.

What about the Tumor volume ([3]; 3 days, dosage 10 mg/Kg orally once a day) of the same compound?
The Tumor volume was 650 mm^3.

What about the Tumor volume ([3]; 7 days, dosage 3 mg/Kg orally once a day) of the same compound?
Its Tumor volume is 777 mm^3.

What about the Tumor volume ([3]; 7 days, dosage 10 mg/Kg orally once a day) of the same compound?
Its Tumor volume is 752 mm^3.

And the Tumor volume ([3]; 10 days, dosage 3 mg/Kg orally once a day)?
Its Tumor volume is 1003 mm^3.

What about the Tumor volume ([3]; 10 days, dosage 10 mg/Kg orally once a day) of the same compound?
Its Tumor volume is 743 mm^3.

And the Tumor volume ([3]; 13 days, dosage 3 mg/Kg orally once a day)?
Its Tumor volume is 1177 mm^3.

What about the Tumor volume ([3]; 13 days, dosage 10 mg/Kg orally once a day) of the same compound?
Its Tumor volume is 705 mm^3.

What about the Tumor volume ([3]; 17 days, dosage 3 mg/Kg orally once a day) of the same compound?
The Tumor volume was 1490 mm^3.

And the Tumor volume ([3]; 17 days, dosage 10 mg/Kg orally once a day)?
The Tumor volume was 756 mm^3.

And the Tumor volume ([3]; 19 days, dosage 3 mg/Kg orally once a day)?
The Tumor volume was 1602 mm^3.

What about the Tumor volume ([3]; 19 days, dosage 10 mg/Kg orally once a day) of the same compound?
Its Tumor volume is 692 mm^3.

Which IC50 [1] does the source give for `COc1cc(N2CCC3(CCN(C)CC3)CC2)c(F)cc1Nc1ncc(Cl)c(Nc2ccccc2P(C)(C)=O)n1` [Compound 20, (2-((5-Chloro-2-((5-fluoro-2-methoxy-4-(9-methyl-3,9-diazaspiro[5.5]undecan-3-yl)phenyl)amino)pyrimidin-4-yl)amino)phenyl)dimethyl phosphine oxide] here?
Its IC50 is 1 to 100 nM.

For `COc1cc(N2CCC3(CNC3)C2)ccc1Nc1ncc(Cl)c(Nc2ccccc2P(C)(C)=O)n1` [Compound 6, (2-((5-Chloro-2-((2-methoxy-4-(2,6-diazaspiro[3.4]octan-6-yl)phenyl)amino)pyrimidin-4-yl)amino)phenyl)dimethyl phosphine oxide], which IC50 [1] is on record?
The IC50 was 1 to 100 nM.

Which IC50 [1] does the source give for `COc1cc(N2CCC3(CCN(C)CC3)CC2)c(Cl)cc1Nc1ncc(Cl)c(Nc2ccccc2P(C)(C)=O)n1` [Compound 22, (2-((5-Chloro-2-((5-chloro-2-methoxy-4-(9-methyl-3,9-diazaspiro[5.5]undecan-3-yl)phenyl)amino)pyrimidin-4-yl)amino)phenyl)dimethyl phosphine oxide] here?
Its IC50 is 1 to 100 nM.

And the Tumor volume ([2]; 3 days)?
Its Tumor volume is 234 mm^3.

What about the Tumor volume ([2]; 6 days) of the same compound?
The Tumor volume was 137 mm^3.

And the Tumor volume ([2]; 9 days)?
Its Tumor volume is 90 mm^3.

And the Tumor volume ([2]; 12 days)?
The Tumor volume was 68 mm^3.

And the Tumor volume ([2]; 16 days)?
The Tumor volume was 46 mm^3.

What about the Tumor volume ([2]; 19 days) of the same compound?
The Tumor volume was 54 mm^3.

And the Tumor volume ([2]; 23 days)?
The Tumor volume was 41 mm^3.

Which IC50 [1] does the source give for `COc1cc(N2CCC3(CCNCC3)CC2)ccc1Nc1ncc(Cl)c(Nc2ccccc2P(C)(C)=O)n1` [Compound 8, (2-((5-Chloro-2-((2-methoxy-4-(3,9-diazaspiro[5.5]undecan-3-yl)phenyl)amino)pyrimidin-4-yl)amino)phenyl)dimethyl phosphine oxide] here?
The IC50 was 1 to 100 nM.

How did the Tumor volume ([2]; 3 days) turn out when `C[C@@H](Oc1cc(-c2cnn(C3CCNCC3)c2)cnc1N)c1c(Cl)ccc(F)c1Cl` [Crizotinib, reference compound] was run?
Its Tumor volume is 297 mm^3.

And the Tumor volume ([2]; 6 days)?
Its Tumor volume is 288 mm^3.

And the Tumor volume ([2]; 9 days)?
The Tumor volume was 311 mm^3.

What about the Tumor volume ([2]; 12 days) of the same compound?
Its Tumor volume is 340 mm^3.

What about the Tumor volume ([2]; 16 days) of the same compound?
The Tumor volume was 413 mm^3.

What about the Tumor volume ([2]; 19 days) of the same compound?
The Tumor volume was 419 mm^3.

What about the Tumor volume ([2]; 23 days) of the same compound?
Its Tumor volume is 439 mm^3.

What about the Tumor volume ([3]; 0 day, 25 mg/Kg orally once a day) of the same compound?
The Tumor volume was 502 mm^3.

What about the Tumor volume ([3]; 3 days, 25 mg/Kg orally once a day) of the same compound?
The Tumor volume was 708 mm^3.

What about the Tumor volume ([3]; 7 days, 25 mg/Kg orally once a day) of the same compound?
Its Tumor volume is 828 mm^3.

What about the Tumor volume ([3]; 10 days, 25 mg/Kg orally once a day) of the same compound?
Its Tumor volume is 1002 mm^3.

And the Tumor volume ([3]; 13 days, 25 mg/Kg orally once a day)?
Its Tumor volume is 1116 mm^3.

What about the Tumor volume ([3]; 17 days, 25 mg/Kg orally once a day) of the same compound?
Its Tumor volume is 1415 mm^3.

What about the Tumor volume ([3]; 19 days, 25 mg/Kg orally once a day) of the same compound?
The Tumor volume was 1488 mm^3.
